Results published in patent publication US20100160342A1, “Compositions of Topical Ocular Solutions to Deliver Effective Concentrations of Active Agent to the Posterior Segment of the Eye” (ALCON RESEARCH, LTD., priority 2008, published 2010).

Tests used:
[1] = in vivo
[2] = From the text: Another preferred criterion for improving the bioavailability of the active agent is establishing a pH range for the composition which provides the highest solubility. It will be apparent to the skilled artisan that the pH of the composition will depend upon the concentration and the salt form of the active agent in the composition.
[3] = Ocular comfort / stinging upon topical administration to the eye
From the text: It is well known that acidic solutions alone cause ocular stinging.

Molecule | aqueous humor (AqH) drug level, 0.5% HPMC versus 0% HPMC [1] | retina drug level, 0.5% HPMC versus 0% HPMC [1] | solubility versus theoretical solubility predicted by the Handerson-Hasselbach relationship [2] | ocular stinging / comfort ([3]; ophthalmic solution administered topically to the eye) | solubility compared with the free base [2] | ocular stinging / comfort ([3]; in vivo)
O=C1[C@@H]2[C@H]3CC[C@H](C3)[C@@H]2C(=O)N1CCCCN1CCN(c2ncccn2)CC1 [Tandospirone, tandospirone] | ~3 fold | 0.5% HPMC ˜0% HPMC | does not exhibit this solubility dip | more comfortable | – | –
tandospirone citrate [tandospirone citrate salt] | – | – | decreased substantially | – | dramatically less than that of the free base | stings
